Assay results as given in patent publication US12649750B2, “Macrocyclic compounds, compositions, and methods of using thereof” (Sionna Therapeutics Inc., priority 2022, dated 2026).
Each block holds one compound with its values, some of them ahead of it.

Legend:
CFTR = biological target: T1, CFTR (Homo sapiens, UniProt P13569, DEL508-508); experiment: TECC24 AUC fold over DMSO @10 μM, CFTR-mediated transepithelial chloride transport in CF-HBE cells; format: cell-based; settings: test agent AUC divided by DMSO vehicle AUC, primary CF-HBE cells, ΔF508 homozygous donor, 48 hours incubation
T1 construct: Primary human bronchial epithelial cells from a ΔF508 homozygous CF donor; host or cells: primary human bronchial epithelial cells (CF-HBE), ΔF508 homozygous donor
Summary of the method: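 ΔF508-homozygous primary bronchial epithelial cells incubated 48 h at 36.5° C with compound (10 μM) in IL-13-containing medium, then TECC24 current-clamp recording in pH 7.4 Hepes saline with benzamil 10 μM, forskolin 10 μM, then CFTR inhibitor-172 20 μM. Equivalent Cl− current AUC between forskolin and inhibitor, expressed as fold over DMSO.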

NBD1 = biological target: T2, NBD1 (Homo sapiens, UniProt P13569); experiment: Aggregation analysis using differential static light scattering (DSLS), thermal stability of NBD1 (ΔTagg); format: binding; settings: ΔTagg versus DMSO control, NBD1 0.2 mg/ml
T2 construct: Purified recombinant NBD1 was produced using previously described methods; made in house
Summary of the method: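 Read-out is ΔTagg: the aggregation temperature, taken at the inflection of the light-scattering curve, less the average of DMSO control wells. Recombinant NBD1 (0.2 mg/ml, pH7.6 buffer containing 2 mM ATP) with test compound was heated at 1° C. per minute up to 70° C.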

T2 sequence (P13569 423-646 limits assumed): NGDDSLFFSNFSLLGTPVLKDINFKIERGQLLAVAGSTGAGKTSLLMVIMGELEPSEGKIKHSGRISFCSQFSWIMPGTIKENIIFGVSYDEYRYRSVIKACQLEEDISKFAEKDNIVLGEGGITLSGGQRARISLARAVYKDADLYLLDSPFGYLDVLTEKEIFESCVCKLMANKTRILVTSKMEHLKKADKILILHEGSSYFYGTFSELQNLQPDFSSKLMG
T1 sequence (P13569 with tags, fused parts or gaps DEL508-508): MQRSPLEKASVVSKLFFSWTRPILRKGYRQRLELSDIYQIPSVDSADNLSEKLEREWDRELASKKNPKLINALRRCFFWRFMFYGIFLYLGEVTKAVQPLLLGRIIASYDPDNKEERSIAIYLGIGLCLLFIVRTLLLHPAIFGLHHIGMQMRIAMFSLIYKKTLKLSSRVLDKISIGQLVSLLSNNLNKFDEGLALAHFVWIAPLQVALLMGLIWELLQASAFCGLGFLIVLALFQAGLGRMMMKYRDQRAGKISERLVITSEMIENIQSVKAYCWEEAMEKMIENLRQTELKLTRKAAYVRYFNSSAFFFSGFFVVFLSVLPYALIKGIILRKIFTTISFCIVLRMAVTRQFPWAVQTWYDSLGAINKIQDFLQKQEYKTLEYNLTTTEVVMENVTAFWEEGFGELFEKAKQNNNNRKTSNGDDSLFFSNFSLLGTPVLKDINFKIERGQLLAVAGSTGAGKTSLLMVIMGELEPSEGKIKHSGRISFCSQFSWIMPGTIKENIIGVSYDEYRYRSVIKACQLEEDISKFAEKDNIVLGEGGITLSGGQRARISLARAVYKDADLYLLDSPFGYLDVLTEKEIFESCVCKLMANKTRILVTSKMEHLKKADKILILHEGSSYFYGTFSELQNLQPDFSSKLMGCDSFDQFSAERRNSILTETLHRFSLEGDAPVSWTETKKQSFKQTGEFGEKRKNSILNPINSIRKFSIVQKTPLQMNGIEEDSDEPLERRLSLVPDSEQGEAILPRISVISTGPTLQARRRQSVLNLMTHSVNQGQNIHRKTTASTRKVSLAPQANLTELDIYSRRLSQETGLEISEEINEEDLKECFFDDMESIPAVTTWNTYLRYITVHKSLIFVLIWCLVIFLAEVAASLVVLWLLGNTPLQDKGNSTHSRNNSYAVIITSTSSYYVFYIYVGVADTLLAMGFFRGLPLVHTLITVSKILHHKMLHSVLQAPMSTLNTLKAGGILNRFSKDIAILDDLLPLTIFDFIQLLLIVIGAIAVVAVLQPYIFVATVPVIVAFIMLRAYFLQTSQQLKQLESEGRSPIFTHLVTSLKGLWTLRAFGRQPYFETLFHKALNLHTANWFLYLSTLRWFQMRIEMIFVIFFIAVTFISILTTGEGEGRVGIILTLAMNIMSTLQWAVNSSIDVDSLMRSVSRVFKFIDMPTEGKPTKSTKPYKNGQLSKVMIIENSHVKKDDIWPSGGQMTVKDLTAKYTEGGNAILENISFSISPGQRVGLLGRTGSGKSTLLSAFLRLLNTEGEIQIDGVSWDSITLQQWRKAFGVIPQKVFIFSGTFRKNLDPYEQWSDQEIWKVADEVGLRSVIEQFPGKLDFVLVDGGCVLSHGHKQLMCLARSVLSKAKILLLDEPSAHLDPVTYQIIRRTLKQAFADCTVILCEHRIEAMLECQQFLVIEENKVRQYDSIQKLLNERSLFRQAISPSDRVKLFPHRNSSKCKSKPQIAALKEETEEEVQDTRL

Compound: CC(Cc1cccc(C2(C)CCS(=O)(=O)CC(C)(C)c3cnn(c3)Cc3c(c(F)cc4[nH]ccc34)Oc3ccc(F)c(c3)-c3nc2nn3C)c1)C(=O)O (stereo not shown) [Compound 110, 3-[3-(24,30-Difluoro-3,6,11,11-tetramethyl-9,9-dioxo-26-oxa-9lambda6-thia-3,4,14,15,21,33-hexazahexacyclo-[25.3.1.12,5.112,15.017,25.018,22]tritriaconta-1(31),2(33),4,12(32),13,17,19,22,24,27,29-undecaen-6-yl)phenyl]-2-methyl-propanoic Acid]
TECC (AUC, 10 μM) (CFTR): C (a value between 20 and 80 is marked “C”)
DSLS 3D (100 μM ΔT) (NBD1): B (a value above 5 °C and less than or equal to 10 °C is marked “B”)

TECC (AUC, 10 μM) (CFTR): B (a value between 12-20 is marked “B”)
Compound: Cn1nc2nc1-c1cc(ccc1F)Oc1c(F)cc3[nH]ccc3c1Cn1cc(cn1)C(C)(C)S(=O)(=O)CCCC2(C)c1cccc(CCC(=O)O)c1 (stereo not shown) [Compound 111, 3-[3-(24,30-Difluoro-3,6,11,11-tetramethyl-10,10-dioxo-26-oxa-10λ6-thia-3,4,14,15,21,33-hexazahexacyclo[25.3.1.12,5.112,15.017,25.018,22]-tritriaconta-1(31),2(33),4,12(32),13,17,19,22,24,27,29-undecaen-6-yl)phenyl]propanoic Acid]
DSLS 3D (100 μM ΔT) (NBD1): C (a value greater than 10 °C and less than or equal to 25 °C is marked “C”)

Compound: CC(Cc1cccc(C2(C)CCS(=O)(=O)CCS(=O)(=O)CCc3c(c(F)cc4[nH]ccc34)Oc3ccc(F)c(c3)-c3nc2nn3C)c1)C(=O)O (stereo not shown) [Compound 112, 3-[3-(22,28-Difluoro-3,6-dimethyl-9,9,12,12-tetraoxo-24-oxa-9lambda6,12lambda6-dithia-3,4,19,30-tetrazapentacyclo[23.3.1.12,5.015,23.016,20]triaconta-1(29),2(30),4,15,17,20,22,25,27-nonaen-6-yl)phenyl]-2-methyl-propanoic Acid]
TECC (AUC, 10 μM) (CFTR): A (a TECC value less than 12 is marked “A”)
DSLS 3D (100 μM ΔT) (NBD1): B (a value above 5 °C and less than or equal to 10 °C is marked “B”)

TECC (AUC, 10 μM) (CFTR): B (a value between 12-20 is marked “B”)
Compound: CC(Cc1cccc(C2CCCC(C)(C)CS(=O)(=O)CCc3c(c(F)cc4[nH]ccc34)Oc3ccc(F)c(c3)-c3nc2nn3C)c1)C(=O)O (stereo not shown) [Compound 114, 3-[3-(22,28-Difluoro-3,10,10-trimethyl-12,12-dioxo-24-oxa-12λ6-thia-3,4,19,30-tetrazapentacyclo[23.3.1.12,5.015,23.016,20]triaconta-1(29),2(30),4,15,17,20,22,25,27-nonaen-6-yl)phenyl]-2-methyl-propanoic Acid]
DSLS 3D (100 μM ΔT) (NBD1): C (a value greater than 10 °C and less than or equal to 25 °C is marked “C”)

Compound: CC(Cc1cccc(C2(C3SCCS3)CCCC(C)(C)CS(=O)(=O)CCc3c(c(F)cc4[nH]ccc34)Oc3ccc(F)c(c3)-c3nc2nn3C)c1)C(=O)O (stereo not shown) [Compound 115, 3-[3-[6-(1,3-Dithiolan-2-yl)-22,28-difluoro-3,10,10-trimethyl-12,12-dioxo-24-oxa-12λ6-thia-3,4,19,30-tetrazapentacyclo-[23.3.1.12,5.015,23.016,20]triaconta-1(29),2(30),4,15,17,20,22,25,27-nonaen-6-yl]phenyl]-2-methyl-propanoic Acid]
TECC (AUC, 10 μM) (CFTR): A (a TECC value less than 12 is marked “A”)
DSLS 3D (100 μM ΔT) (NBD1): C (a value greater than 10 °C and less than or equal to 25 °C is marked “C”)

Compound: Cn1nc2nc1-c1cc(ccc1F)Oc1c(F)cc3[nH]cnc3c1CCS(=O)(=O)CC(C)(C)CCCC2(C)c1cccc(CCC(=O)O)c1 (stereo not shown) [Compound 116, 3-[3-(22,28-Difluoro-3,6,10,10-tetramethyl-12,12-dioxo-24-oxa-12λ6-thia-3,4,17,19,30-pentazapentacyclo[23.3.1.12,5.015,23.016,20]triaconta-1(29),2(30),4,15,17,20,22,25,27-nonaen-6-yl)phenyl]propanoic Acid]
TECC (AUC, 10 μM) (CFTR): A (a TECC value less than 12 is marked “A”)
DSLS 3D (100 μM ΔT) (NBD1): C (a value greater than 10 °C and less than or equal to 25 °C is marked “C”)

Compound: CC(Cc1cccc(C2(C)CCCC(C)(C)CS(=O)(=O)CCc3c(c(F)cc4[nH]ccc34)Oc3cccc(c3)-c3nc2cn3C)c1)C(=O)O (stereo not shown) [Compound 117, 3-[3-(22-Fluoro-3,6,10,10-tetramethyl-12,12-dioxo-24-oxa-12λ6-thia-3,19,30-triazapentacyclo[23.3.1.12,5.015,23.016,20]triaconta-1(29),2(30),4,15,17,20,22,25,27-nonaen-6-yl)phenyl]-2-methyl-propanoic Acid]
TECC (AUC, 10 μM) (CFTR): C (a value between 20 and 80 is marked “C”)
DSLS 3D (100 μM ΔT) (NBD1): C (a value greater than 10 °C and less than or equal to 25 °C is marked “C”)

Compound: Cn1nc2nc1-c1cc(ccc1F)Oc1c(F)cc3[nH]ccc3c1CCS(=O)(=O)CC(C)(C)CCCC2(C)c1ccc2c(c1)CC(C(=O)O)C2 (stereo not shown) [Compound 128, 5-(22,28-Difluoro-3,6,10,10-tetramethyl-12,12-dioxo-24-oxa-12λ6-thia-3,4,19,30-tetrazapentacyclo[23.3.1.12,5.015,23.016,20]triaconta-1(29),2(30),4,15,17,20,22,25,27-nonaen-6-yl)indane-2-carboxylic Acid]
TECC (AUC, 10 μM) (CFTR): A (a TECC value less than 12 is marked “A”)
DSLS 3D (100 μM ΔT) (NBD1): C (a value greater than 10 °C and less than or equal to 25 °C is marked “C”)

TECC (AUC, 10 μM) (CFTR): B (a value between 12-20 is marked “B”)
Compound: CCOC(=O)C(Cc1cccc(C2(C)CCCC(C)(C)CS(=O)(=O)CCc3c(c(F)cc4[nH]ccc34)Oc3ccc(F)c(c3)-c3nc2nn3C)c1)C(F)F (stereo not shown) [Compound 131, Ethyl 2-[[3-(22,28-difluoro-3,6,10,10-tetramethyl-12,12-dioxo-24-oxa-12λ6-thia-3,4,19,30-tetrazapentacyclo[23.3.1.12,5.015,23.016,20]triaconta-1(29),2(30),4,15,17,20,22,25,27-nonaen-6-yl)phenyl]methyl]-3,3-difluoro-propanoate]
DSLS 3D (100 μM ΔT) (NBD1): A (an ΔTagg value less than or equal to 5 °C is marked “A”)

Compound: CC(Cc1cccc(C2(N)CCCC(C)(C)CS(=O)(=O)CCc3c(c(F)cc4[nH]ccc34)Oc3ccc(F)c(c3)-c3nc2nn3C)c1)C(=O)O (stereo not shown) [Compound 138, 3-[3-(6-Amino-22,28-difluoro-3,10,10-trimethyl-12,12-dioxo-24-oxa-12λ6-thia-3,4,19,30-tetrazapentacyclo[23.3.1.12,5.015,23.016,20]triaconta-1(29),2(30),4,15,17,20,22,25,27-nonaen-6-yl)phenyl]-2-methyl-propanoic Acid]
TECC (AUC, 10 μM) (CFTR): C (a value between 20 and 80 is marked “C”)
DSLS 3D (100 μM ΔT) (NBD1): C (a value greater than 10 °C and less than or equal to 25 °C is marked “C”)

Compound: Cn1nc2nc1-c1cc(ccc1F)Oc1c(F)cc3[nH]ccc3c1CCS(=O)(=O)CC(C)(C)CCCC2(C)c1cccc(O)c1 (stereo not shown) [Compound 154, 3-(22,28-Difluoro-3,6,10,10-tetramethyl-12,12-dioxo-24-oxa-12λ6-thia-3,4,19,30-tetrazapentacyclo[23.3.1.12,5.015,23.016,20]triaconta-1(29),2(30),4,15,17,20,22,25,27-nonaen-6-yl)phenol]
TECC (AUC, 10 μM) (CFTR): A (a TECC value less than 12 is marked “A”)
DSLS 3D (100 μM ΔT) (NBD1): B (a value above 5 °C and less than or equal to 10 °C is marked “B”)

Compound: C/C(C(=O)O)=C(/C)c1cccc(C2(C)CCCC(C)(C)CS(=O)(=O)CCc3c(c(F)cc4[nH]ccc34)Oc3ccc(F)c(c3)-c3nc2nn3C)c1 (stereo not shown) [Compound 155, (E)-3-[3-(22,28-Difluoro-3,6,10,10-tetramethyl-12,12-dioxo-24-oxa-12λ6-thia-3,4,19,30-tetrazapentacyclo[23.3.1.12,5.015,23.016,20]triaconta-1(29),2(30),4,15,17,20,22,25,27-nonaen-6-yl)phenyl]-2-methyl-but-2-enoic Acid]
TECC (AUC, 10 μM) (CFTR): A (a TECC value less than 12 is marked “A”)
DSLS 3D (100 μM ΔT) (NBD1): C (a value greater than 10 °C and less than or equal to 25 °C is marked “C”)

TECC (AUC, 10 μM) (CFTR): B (a value between 12-20 is marked “B”)
Compound: CC(C(=O)O)C(C)c1cccc(C2(C)CCCC(C)(C)CS(=O)(=O)CCc3c(c(F)cc4[nH]ccc34)Oc3ccc(F)c(c3)-c3nc2nn3C)c1 (stereo not shown) [Compound 156, 3-[3-(22,28-Difluoro-3,6,10,10-tetramethyl-12,12-dioxo-24-oxa-12λ6-thia-3,4,19,30-tetrazapentacyclo[23.3.1.12,5.015,23.016,20]triaconta-1(29),2(30),4,15,17,20,22,25,27-nonaen-6-yl)phenyl]-2-methyl-butanoic Acid]
DSLS 3D (100 μM ΔT) (NBD1): C (a value greater than 10 °C and less than or equal to 25 °C is marked “C”)

TECC (AUC, 10 μM) (CFTR): B (a value between 12-20 is marked “B”)
Compound: COC(=O)C(C)CCc1cccc(C2(C)CCCC(C)(C)CS(=O)(=O)CCc3c(c(F)cc4[nH]ccc34)Oc3ccc(F)c(c3)-c3nc2nn3C)c1 (stereo not shown) [Compound 159, Methyl 4-[3-(22,28-difluoro-3,6,10,10-tetramethyl-12,12-dioxo-24-oxa-12λ6-thia-3,4,19,30-tetrazapentacyclo[23.3.1.12,5.015,23.016,20]triaconta-1(29),2(30),4,15,17,20,22,25,27-nonaen-6-yl)phenyl]-2-methyl-butanoate]
DSLS 3D (100 μM ΔT) (NBD1): A (an ΔTagg value less than or equal to 5 °C is marked “A”)
